Measurements taken from PubChem BioAssay (NCI).
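Cells were grown in 96-well plates and exposed to each compound for 48 hours at five concentrations; endpoints were interpolated linearly between bracketing concentrations, or set to the highest concentration if not reached. At the GI50, growth is halved. At the TGI there is no net growth.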

How the values were obtained:
Test in all cases: NCI tumour cell line growth inhibition, 48 h
A498 renal = tested on: A498 renal
CAKI-1 renal = tested on: CAKI-1 renal
DU-145 prostate = tested on: DU-145 prostate
EKVX NSCLC = tested on: EKVX NSCLC
HCT-15 colon = tested on: HCT-15 colon
HOP-92 NSCLC = tested on: HOP-92 NSCLC
HS 578T breast = tested on: HS 578T breast
MDA-MB-435 = tested on: MDA-MB-435
NCI/ADR-RES ovarian = tested on: NCI/ADR-RES ovarian
PC-3 prostate = tested on: PC-3 prostate
RXF 393 renal = tested on: RXF 393 renal
SF-268 CNS = tested on: SF-268 CNS
SF-295 CNS = tested on: SF-295 CNS
SK-MEL-2 melanoma = tested on: SK-MEL-2 melanoma
SK-MEL-28 melanoma = tested on: SK-MEL-28 melanoma
UACC-257 melanoma = tested on: UACC-257 melanoma
UO-31 renal = tested on: UO-31 renal
786-0 renal = tested on: 786-0 renal
A549 NSCLC = tested on: A549 NSCLC
ACHN renal = tested on: ACHN renal
COLO 205 colon = tested on: COLO 205 colon
HCC-2998 colon = tested on: HCC-2998 colon
HCT-116 colon = tested on: HCT-116 colon
HL-60(TB) leukemia = tested on: HL-60(TB) leukemia
HOP-62 NSCLC = tested on: HOP-62 NSCLC
HT29 colon = tested on: HT29 colon
IGROV1 ovarian = tested on: IGROV1 ovarian
K-562 leukemia = tested on: K-562 leukemia
KM12 colon = tested on: KM12 colon
LOX IMVI melanoma = tested on: LOX IMVI melanoma
M14 melanoma = tested on: M14 melanoma
MALME-3M melanoma = tested on: MALME-3M melanoma
MCF7 breast = tested on: MCF7 breast
MDA-MB-231 breast = tested on: MDA-MB-231 breast
MOLT-4 leukemia = tested on: MOLT-4 leukemia
NCI-H226 lung = tested on: NCI-H226 lung
NCI-H23 lung = tested on: NCI-H23 lung
NCI-H460 lung = tested on: NCI-H460 lung
NCI-H522 lung = tested on: NCI-H522 lung
OVCAR-3 ovarian = tested on: OVCAR-3 ovarian
OVCAR-5 ovarian = tested on: OVCAR-5 ovarian
OVCAR-8 ovarian = tested on: OVCAR-8 ovarian
RPMI-8226 leukemia = tested on: RPMI-8226 leukemia
SF-539 CNS = tested on: SF-539 CNS
SK-MEL-5 melanoma = tested on: SK-MEL-5 melanoma
SK-OV-3 ovarian = tested on: SK-OV-3 ovarian
SN12C renal = tested on: SN12C renal
SNB-19 CNS = tested on: SNB-19 CNS
SNB-75 CNS = tested on: SNB-75 CNS
SR leukemia = tested on: SR leukemia
SW-620 colon = tested on: SW-620 colon
T-47D breast = tested on: T-47D breast
TK-10 renal = tested on: TK-10 renal
U251 CNS = tested on: U251 CNS
UACC-62 melanoma = tested on: UACC-62 melanoma

With `O=C(C[n+]1ccn(CC(OCc2ccc(Cl)cc2Cl)c2ccc(Cl)cc2Cl)c1)c1ccc(F)cc1` (configuration not stated) the GI50 (A498 renal) was 1.42 µM, the TGI (A498 renal) was 3.36 µM and the GI50 (CAKI-1 renal) was 2.05 µM. It also gave a TGI (CAKI-1 renal) of 18.3 µM, a GI50 (DU-145 prostate) of 1.66 µM and a TGI (DU-145 prostate) of 3.09 µM. For the same compound, the GI50 (EKVX NSCLC) was 1.11 µM, the TGI (EKVX NSCLC) was 2.4 µM and the GI50 (HCT-15 colon) was 4.65 µM. The TGI (HCT-15 colon) was 67.6 µM, the GI50 (HOP-92 NSCLC) was 1.27 µM and the TGI (HOP-92 NSCLC) was 2.84 µM. For the same compound, the GI50 (HS 578T breast) was 1.6 µM, the TGI (HS 578T breast) was 3.72 µM and the GI50 (MDA-MB-435) was 1.31 µM. For the same compound, the TGI (MDA-MB-435) was 2.72 µM, the GI50 (NCI/ADR-RES ovarian) was 16.5 µM and the TGI (NCI/ADR-RES ovarian) was 57.5 µM. It also gave a GI50 (PC-3 prostate) of 1.55 µM, a TGI (PC-3 prostate) of 2.91 µM and a GI50 (RXF 393 renal) of 1.81 µM. For the same compound, the TGI (RXF 393 renal) was 3.31 µM, the GI50 (SF-268 CNS) was 1.44 µM and the TGI (SF-268 CNS) was 3.09 µM. The GI50 (SF-295 CNS) was 1.63 µM, the TGI (SF-295 CNS) was 3.19 µM and the GI50 (SK-MEL-2 melanoma) was 1.65 µM. It also gave a TGI (SK-MEL-2 melanoma) of 3.11 µM, a GI50 (SK-MEL-28 melanoma) of 1.7 µM and a TGI (SK-MEL-28 melanoma) of 3.12 µM. For the same compound, the GI50 (UACC-257 melanoma) was 1.43 µM, the TGI (UACC-257 melanoma) was 2.8 µM and the GI50 (UO-31 renal) was 2.43 µM. It also gave a TGI (UO-31 renal) of 17 µM.

For `NC1=CC(=O)C(=O)c2ccccc21`, the GI50 (786-0 renal) was 25 µM, the TGI (786-0 renal) was 79.8 µM and the GI50 (A498 renal) was 79.2 µM. For the same compound, the TGI (A498 renal) was > 100 µM, the GI50 (A549 NSCLC) was 28.2 µM and the TGI (A549 NSCLC) was 97.6 µM. The GI50 (ACHN renal) was 16.2 µM, the TGI (ACHN renal) was 50.1 µM and the GI50 (CAKI-1 renal) was 19.7 µM. The TGI (CAKI-1 renal) was 53.3 µM, the GI50 (COLO 205 colon) was 26.6 µM and the TGI (COLO 205 colon) was > 100 µM. For the same compound, the GI50 (DU-145 prostate) was 17.9 µM, the TGI (DU-145 prostate) was 45.4 µM and the GI50 (EKVX NSCLC) was 18.3 µM. For the same compound, the TGI (EKVX NSCLC) was 55.8 µM, the GI50 (HCC-2998 colon) was 43.9 µM and the TGI (HCC-2998 colon) was > 100 µM. For the same compound, the GI50 (HCT-116 colon) was 12.7 µM, the TGI (HCT-116 colon) was 28 µM and the GI50 (HCT-15 colon) was 25.1 µM. For the same compound, the TGI (HCT-15 colon) was > 100 µM, the GI50 (HL-60(TB) leukemia) was 11.9 µM and the TGI (HL-60(TB) leukemia) was 43.8 µM. The GI50 (HOP-62 NSCLC) was 18 µM, the TGI (HOP-62 NSCLC) was 40.7 µM and the GI50 (HOP-92 NSCLC) was 30 µM. It also gave a TGI (HOP-92 NSCLC) of 93.8 µM, a GI50 (HS 578T breast) of 12.1 µM and a TGI (HS 578T breast) of 40.6 µM. For the same compound, the GI50 (HT29 colon) was 31.9 µM, the TGI (HT29 colon) was 94.3 µM and the GI50 (IGROV1 ovarian) was 19.7 µM. The TGI (IGROV1 ovarian) was 39.5 µM, the GI50 (K-562 leukemia) was 20.6 µM and the TGI (K-562 leukemia) was > 100 µM. It also gave a GI50 (KM12 colon) of 18.2 µM, a TGI (KM12 colon) of 53.4 µM and a GI50 (LOX IMVI melanoma) of 15.9 µM. For the same compound, the TGI (LOX IMVI melanoma) was 39.7 µM, the GI50 (M14 melanoma) was 9.59 µM and the TGI (M14 melanoma) was 21.3 µM. For the same compound, the GI50 (MALME-3M melanoma) was 11 µM, the TGI (MALME-3M melanoma) was 25.7 µM and the GI50 (MCF7 breast) was 13.2 µM. The TGI (MCF7 breast) was 29.8 µM, the GI50 (MDA-MB-231 breast) was 11 µM and the TGI (MDA-MB-231 breast) was 30.9 µM. The GI50 (MDA-MB-435) was 1.84 µM, the TGI (MDA-MB-435) was 3.41 µM and the GI50 (MOLT-4 leukemia) was 22.4 µM. The TGI (MOLT-4 leukemia) was > 100 µM, the GI50 (NCI-H226 lung) was 18.8 µM and the TGI (NCI-H226 lung) was 42.1 µM. The GI50 (NCI-H23 lung) was 13.2 µM, the TGI (NCI-H23 lung) was 34.6 µM and the GI50 (NCI-H460 lung) was 33.8 µM. For the same compound, the TGI (NCI-H460 lung) was > 100 µM, the GI50 (NCI-H522 lung) was 16.6 µM and the TGI (NCI-H522 lung) was 38.2 µM. It also gave a GI50 (NCI/ADR-RES ovarian) of 12.7 µM, a TGI (NCI/ADR-RES ovarian) of 53.3 µM and a GI50 (OVCAR-3 ovarian) of 12.4 µM. The TGI (OVCAR-3 ovarian) was 29.9 µM, the GI50 (OVCAR-5 ovarian) was 18.9 µM and the TGI (OVCAR-5 ovarian) was 41.1 µM. The GI50 (OVCAR-8 ovarian) was 14.8 µM, the TGI (OVCAR-8 ovarian) was 47.3 µM and the GI50 (PC-3 prostate) was 17.9 µM. It also gave a TGI (PC-3 prostate) of 70.5 µM, a GI50 (RPMI-8226 leukemia) of 11.2 µM and a TGI (RPMI-8226 leukemia) of 53.2 µM. For the same compound, the GI50 (RXF 393 renal) was 24.3 µM, the TGI (RXF 393 renal) was 71.5 µM and the GI50 (SF-268 CNS) was 18.8 µM. The TGI (SF-268 CNS) was 62.3 µM, the GI50 (SF-295 CNS) was 12.7 µM and the TGI (SF-295 CNS) was 33.4 µM. The GI50 (SF-539 CNS) was 21.5 µM, the TGI (SF-539 CNS) was 40.9 µM and the GI50 (SK-MEL-28 melanoma) was 8.81 µM. It also gave a TGI (SK-MEL-28 melanoma) of 22.3 µM, a GI50 (SK-MEL-5 melanoma) of 14.7 µM and a TGI (SK-MEL-5 melanoma) of 28 µM. For the same compound, the GI50 (SK-OV-3 ovarian) was 47.6 µM, the TGI (SK-OV-3 ovarian) was > 100 µM and the GI50 (SN12C renal) was 2.77 µM. It also gave a TGI (SN12C renal) of 17.4 µM, a GI50 (SNB-19 CNS) of 20.4 µM and a TGI (SNB-19 CNS) of 79.9 µM. The GI50 (SNB-75 CNS) was 13.8 µM, the TGI (SNB-75 CNS) was 27.1 µM and the GI50 (SR leukemia) was 23.3 µM. The TGI (SR leukemia) was > 100 µM, the GI50 (SW-620 colon) was 17.6 µM and the TGI (SW-620 colon) was 38.4 µM. It also gave a GI50 (T-47D breast) of 14.2 µM, a TGI (T-47D breast) of 46.2 µM and a GI50 (TK-10 renal) of 16.7 µM. It also gave a TGI (TK-10 renal) of 47.5 µM, a GI50 (U251 CNS) of 19.3 µM and a TGI (U251 CNS) of 46.4 µM. It also gave a GI50 (UACC-257 melanoma) of 5.63 µM, a TGI (UACC-257 melanoma) of 18.2 µM and a GI50 (UACC-62 melanoma) of 3.33 µM. The TGI (UACC-62 melanoma) was 15.7 µM, the GI50 (UO-31 renal) was 11.5 µM and the TGI (UO-31 renal) was 35.6 µM.
